# Reference: US9951065B2 (Gilead Sciences, Inc., priority 2015, dated 2018)
# Molecular target: T1, IDO1 (Homo sapiens, UniProt P14902)
# T1 construct: HeLa cells were treated with a test compound in the presence of IFNγ, which induces IDO1 expression; host or cells: H1-HeLa cells, IDO1 induced with IFNγ
# Experiment: Cell-based (HeLa) assay for measurement of IDO1 inhibition (kynurenine levels in supernatant after IFNγ induction)
# Conditions: HeLa cells, IFNγ-induced IDO1, kynurenine in supernatant after 48 hour incubation; geometric mean of a minimum of four determinations
# Description: Example 509. Cell-Based (HeLa) Assay for Measurement of IDOL Inhibition
# To measure IDO1 inhibition in tissue culture, HeLa cells were treated with a test compound in the presence of IFNγ, which induces IDO1 expression. Following incubation, cell supernatants were assayed for kynurenine levels, an indicator of IDO1 activity.
# H1-HeLa cells (ATCC #CRL-1958) were seeded in 384-well plates (Greiner #82051-282) at a volume of 50 μL/well in DMEM (Corning #15-018-CM) supplemented with 10% FBS (Corning #35-011-CV) and 1% P/S/G (Corning #30-009-CL) at a density of 1,250 cells/well and incubated overnight at 37° C., 5% CO2/100% humidity. The following day, the test compounds were added in DMSO (0.5% final) at various concentrations, and IDO1 was inducibly expressed by the addition of 50 uL/well of […] of INFγ (Peprotech #300-02) in cell plating media. As a […] control, 50 uL of the cell plating media without IFNγ was added to several wells. Following a 48 hour incubation, the plates were spun down at 1,200 RPM for 5 min at 10° C. 65 μL/well of the supernatant was then transferred to new 384-well plates (Thermo #262160) that contained 10 uL/well of 30% TCA (Sigma #TO699), and the plates were sealed and incubated at 60° C. for 30 min. The plates were then centrifuged for 15 min at 2,000 RPM at 10° C. 40 μL/well of the supernatant was transferred to new 384-well plates (Thermo #262160) and was reacted with 40 μL/well of 2% (w/v) p-dimethlyaminobenzaldehyde (Sigma #156417) in glacial acetic acid (Sigma #A6283). The reaction was incubated at room temperature for 10 min and absorbance at 480 nm was read using a PerkinElmer Envision plate reader.
# Data in Table 1 were normalized based on positive (−IFNγ) and negative (+IFNγ) controls and EC50 values were calculated from the fit of the dose response curves to a four-parameter equation. All EC50 values represent geometric mean values of a minimum of four determinations. These assays generally produced results within 2-fold of the reported mean.
# T1 sequence (P14902 whole entry): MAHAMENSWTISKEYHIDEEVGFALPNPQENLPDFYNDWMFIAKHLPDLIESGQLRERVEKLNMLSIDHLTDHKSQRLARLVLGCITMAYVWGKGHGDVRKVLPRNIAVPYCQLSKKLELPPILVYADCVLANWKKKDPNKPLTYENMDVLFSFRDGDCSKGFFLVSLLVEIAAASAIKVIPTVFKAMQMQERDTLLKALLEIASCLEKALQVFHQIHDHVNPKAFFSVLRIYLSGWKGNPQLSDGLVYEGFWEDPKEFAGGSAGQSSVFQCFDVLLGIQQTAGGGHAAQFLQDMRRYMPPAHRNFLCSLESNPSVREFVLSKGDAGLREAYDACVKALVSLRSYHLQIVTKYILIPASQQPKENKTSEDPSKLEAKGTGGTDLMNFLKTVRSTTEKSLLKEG
row,EC50 [nM],SMILES
1,4000,"OCc1nc2c(/C(=N/O)Nc3ccc(F)c(C(F)(F)F)c3)ccnc2[nH]1 [Example 171, N-(4-Fluoro-3-(trifluoromethyl)phenyl)-N′-hydroxy-2-(hydroxymethyl)-3H-imidazo[4,5-b]pyridine-7-carboximidamide]"
2,8240,"OCCCNCc1nc2nccc(/C(=N/O)Nc3ccc(F)c(Cl)c3)c2[nH]1 [Example 138, N-(3-Chloro-4-fluorophenyl)-N′-hydroxy-2-(((3-hydroxypropyl)amino)methyl)-1H-imidazo[4,5-b]pyridine-7-carboximidamide]"
3,111,"O/N=C(\Nc1cccc(Br)c1)c1ccnc2nc[nH]c12 [Example 80, N-(3-Bromophenyl)-N′-hydroxy-1H-imidazo[4,5-b]pyridine-7-carboximidamide]"
4,1340,"O/N=C(\Nc1cccc2ccoc12)c1ccnc2nc[nH]c12 [Example 69, N-(Benzofuran-7-yl)-N′-hydroxy-1H-imidazo[4,5-b]pyridine-7-carboximidamide]"
5,786,"CCN(CC)CCc1nc2c(F)c(F)cc(/C(=N/O)Nc3ccc(F)c(Cl)c3)c2[nH]1 [Example 58, N-(3-Chloro-4-fluorophenyl)-2-(2-(diethylamino)ethyl)-4,5-difluoro-N′-hydroxy-1H-benzo[d]imidazole-7-carboximidamide]"
6,2150,"O/N=C(\Nc1ccc(F)c(Cl)c1)c1ccnc2nc(CNC3CC3)[nH]c12 [Example 119, N-(3-Chloro-4-fluorophenyl)-2-((cyclopropylamino)methyl)-N′-hydroxy-1H-imidazo[4,5-b]pyridine-7-carboximidamide]"
7,593,"CN(C)CCc1nc2nccc(/C(=N/O)Nc3ccc(F)c(Cl)c3)c2[nH]1 [Example 184, N-(3-Chloro-4-fluorophenyl)-2-(2-(dimethylamino)ethyl)-N′-hydroxy-1H-imidazo[4,5-b]pyridine-7-carboximidamide]"
8,2720,"O/N=C(\Nc1ccc(F)c(Cl)c1)c1ccnc2nc(NCCN3CCCC3)[nH]c12 [Example 283, N-(3-chloro-4-fluorophenyl)-N′-hydroxy-2-((2-(pyrrolidin-1-yl)ethyl)amino)-1H-imidazo[4,5-b]pyridine-7-carboximidamide]"
9,1680,"NCc1nc2c(F)c(F)cc(/C(=N/O)Nc3cccc(Cl)c3)c2[nH]1 [Example 31, 2-(Aminomethyl)-N-(3-chlorophenyl)-4,5-difluoro-N′-hydroxy-1H-benzo[d]imidazole-7-carboximidamide]"
10,2650,"NCc1nc2c(F)ccc(/C(=N/O)Nc3ccc(F)c(Cl)c3)c2[nH]1 [Example 291, 2-(aminomethyl)-N-(3-chloro-4-fluorophenyl)-4-fluoro-N′-hydroxy-1H-benzo[d]imidazole-7-carboximidamide]"
11,634,"Cc1c(F)cc(/C(=N/O)Nc2ccc(F)c(Cl)c2)c2[nH]cnc12 [Example 9, N-(3-Chloro-4-fluorophenyl)-6-fluoro-N′-hydroxy-7-methyl-3H-benzimidazole-4-carboximidamide]"
12,3000,"CC(O)CNc1nc2c(F)c(F)cc(/C(=N/O)Nc3ccc(F)c(Cl)c3)c2[nH]1 (stereo not shown) [Example 293, N-(3-chloro-4-fluorophenyl)-4,5-difluoro-N′-hydroxy-2-((2-hydroxypropyl)amino)-1H-benzo[d]imidazole-7-carboximidamide]"
13,1610,"O/N=C(\Nc1ccc(F)c(Cl)c1)c1ccnc2nc(CN3CCCCC3)[nH]c12 [Example 140, N-(3-Chloro-4-fluorophenyl)-N′-hydroxy-2-(piperidin-1-ylmethyl)-1H-imidazo[4,5-b]pyridine-7-carboximidamide]"
14,460,"COCCN(CCNc1nc2nccc(/C(=N/O)Nc3ccc(F)c(Cl)c3)c2[nH]1)C1CC1 [Example 232, N-(3-chloro-4-fluorophenyl)-2-((2-(cyclopropyl(2-methoxyethyl)amino)ethyl)amino)-N′-hydroxy-1H-imidazo[4,5-b]pyridine-7-carboximidamide]"
15,6270,"CN(C)CCNCc1nc2nccc(/C(=N/O)Nc3ccc(F)c(Cl)c3)c2[nH]1 [Example 136, N-(3-Chloro-4-fluorophenyl)-2-(((2-(dimethylamino)ethyl)amino)methyl)-N′-hydroxy-1H-imidazo[4,5-b]pyridine-7-carboximidamide]"
16,2190,"O/N=C(\Nc1ccc(F)c(Cl)c1)c1ccnc2nc(NC3CCOC3)[nH]c12 (stereo not shown) [Example 227, N-(3-chloro-4-fluorophenyl)-N′-hydroxy-2-((tetrahydrofuran-3-yl)amino)-1H-imidazo[4,5-b]pyridine-7-carboximidamide]"

# Same assay, conditions: HeLa cells, IFNγ-induced IDO1, kynurenine in supernatant, 48 hour incubation; geometric mean of a minimum of four determinations
row,EC50 [nM],SMILES
1,1350,"CN1CCOCC1CNc1nc2c(F)c(F)cc(/C(=N/O)Nc3ccc(F)c(Cl)c3)c2[nH]1 (stereo not shown) [Example 429, N-(3-chloro-4-fluorophenyl)-4,5-difluoro-N′-hydroxy-2-(((4-methylmorpholin-3-yl)methyl)amino)-1H-benzo[d]imidazole-7-carboximidamide]"
2,1950,"O/N=C(\Nc1ccc(F)c(Cl)c1)c1cc(F)c(F)c2nc(N[C@H]3CCCNC3)[nH]c12 [Example 445, (S)—N-(3-chloro-4-fluorophenyl)-4,5-difluoro-N′-hydroxy-2-(piperidin-3-ylamino)-1H-benzo[d]imidazole-7-carboximidamide]"
3,192,"CCN(CCNc1nc2nccc(/C(=N/O)Nc3ccc(F)c(Cl)c3)c2[nH]1)C1CC1 [Example 403, N-(3-chloro-4-fluorophenyl)-2-((2-(cyclopropyl(ethyl)amino)ethyl)amino)-N′-hydroxy-1H-imidazo[4,5-b]pyridine-7-carboximidamide]"
4,3430,"CN(C)c1ccccc1CNc1nc2c(F)c(F)cc(/C(=N/O)Nc3ccc(F)c(Cl)c3)c2[nH]1 [Example 348, N-(3-chloro-4-fluorophenyl)-2-((2-(dimethylamino)benzyl)amino)-4,5-difluoro-N′-hydroxy-1H-benzo[d]imidazole-7-carboximidamide]"
5,3060,Cn1ccnc1CCNc1nc2c(F)c(F)cc(/C(=N/O)Nc3ccc(F)c(Cl)c3)c2[nH]1 [Example 344]
6,289,"OCC1CCCCN1CCNc1nc2c(F)c(F)cc(/C(=N/O)Nc3ccc(F)c(Cl)c3)c2[nH]1 (stereo not shown) [Example 489, N-(3-chloro-4-fluorophenyl)-4,5-difluoro-N′-hydroxy-2-((2-(2-(hydroxymethyl)piperidin-1-yl)ethyl)amino)-1H-benzo[d]imidazole-7-carboximidamide]"
7,957,"O/N=C(\Nc1ccc(F)c(Cl)c1)c1cc(F)c(F)c2nc(N[C@@H]3CCCN(C4COC4)C3)[nH]c12 [Example 465, (R)-N-(3-chloro-4-fluorophenyl)-4,5-difluoro-N′-hydroxy-2-((1-(oxetan-3-yl)piperidin-3-yl)amino)-1H-benzo[d]imidazole-7-carboximidamide]"
8,736,"Nc1nc2cc(F)cc(/C(=N/O)Nc3ccc(F)c(Br)c3)c2[nH]1 [Example 373, 2-amino-N-(3-bromo-4-fluorophenyl)-5-fluoro-N′-hydroxy-1H-benzo[d]imidazole-7-carboximidamide]"
9,1240,"O/N=C(\Nc1ccc(F)c(Cl)c1)c1cc(F)c(F)c2nc(NCCCN3CCCC3)[nH]c12 [Example 434, N-(3-chloro-4-fluorophenyl)-4,5-difluoro-N′-hydroxy-2-((3-(pyrrolidin-1-yl)propyl)amino)-1H-benzo[d]imidazole-7-carboximidamide]"
